Laboratory results published in patent publication US20130109712A1, “Statins for the Prevention or Treatment of Drug Addictions” (Universite de Poitiers, priority 2010, published 2013).

How the values were obtained:
cocaine-seeking behavior = experiment: Cocaine-seeking test (extinction session) after cocaine self-administration and 20-day abstinence; format: in vivo, Sprague-Dawley rats; conditions: rats, simvastatin 1 mg/kg i.p. daily for 20 days of abstinence, 3 h extinction test
[1] = system: nicotine-seeking behavior; experiment: Nicotine-seeking test (extinction session) after nicotine self-administration and 20-day abstinence; format: in vivo, Sprague-Dawley rats; conditions: rats, simvastatin 1 mg/kg i.p. daily for 20 days of abstinence; 1 h extinction test; control approx. 100 active nose pokes
Procedure: Thus, the logic of the experiment is the following: • 1) the rats acquire self-administration under similar conditions; • 2) during withdrawal from self-administration, they are separated and receive, once a day for 20 days, an injection of simvastatin (1 mg/kg i.p) or a control solution; • 3) they are tested in a drug-seeking protocol in which their responses are not reinforced by the drug. Adult male (11-12 weeks old) Sprague-Dawley rats (Janvier, France), experimentally naive at the beginning of the study, are placed in the animal house with controlled temperature and degree of humidity, and are kept in a 12-hour light/dark cycle (light active at 7 am). As soon as they arrive, the rats are placed in cages in groups of 3 for one week, before beginning the surgery, consisting of the implantation of a catheter in the jugular vein. After the surgery and during the rest of the experiment, the rats are placed in cages individually. All the experiments are carried out during the “day” phase, in accordance with EC regulations for the use of animals in research (86/609/EEC). For the nicotine, 24 self-administration sessions are carried out using a fixed ratio 1 or 3 (FR1 or FR3) schedule of reinforcement, i.e., during the sessions, respectively one or three nose pokes in the active hole deliver an i.v. injection of nicotine. […]

CCC(C)(C)C(=O)O[C@H]1C[C@@H](C)C=C2C=C[C@H](C)[C@H](CC[C@@H]3C[C@@H](O)CC(=O)O3)[C@H]21 [simvastatin]
reduction in cocaine-seeking behavior vs control (cocaine-seeking behavior): 45%
number of active nose pokes (drug-seeking behavior) (cocaine-seeking behavior; control approx. 350): approximately 190 active nose pokes
reduction in nicotine-seeking behavior vs control [1]: approximately 50%
